Assay results published in patent US11357766B2, “Compositions and methods for treating cancer” (Texas Tech University System, priority 2017, dated 2022).
Like-named read-outs stand apart in the source and are kept apart here.

What was measured:
[1] = tested on: Akt, STAT3 and sonic hedgehog signaling in AsPC1, BxPC3, PANC1, and MIAPaCa2 cells; experiment: Western blot analysis of whole cell lysates; type: cell-based, human; conditions: 48 hours
Procedure: Briefly, in FIG. 3A AsPC1 cells, FIG. 3B BxPC3 cells, FIG. 3C PANC1 cells, and FIG. 3D MIAPaCa2 cells, were treated with 5, 7.5 and 10 μM pimavanserin tartrate for 48 hours. Representative blots showing a concentration-dependent effect of pimavamserin tartrate on pAkt(S473), pSTAT3(Y705), c-Myc, Oct-4, SOX-2, NANOG, CD44, GLI1, cleaved caspase3. β-actin was used as a loading control. Figures shown are the representative blots of at least three independent tests.
Western blot analysis. AsPC1, BxPC3, PANC1, and MIAPaCa2 cells were treated with varying concentrations of pimavanserin tartrate for 48 hours. After 48 hours, cells were collected and subjected to PBS wash twice. The whole cell lysates were prepared using 4% (w/v) CHAPS in urea-tris buffer. Protein content in the lysates were estimated using Bradford reagent (Bio-rad, California, USA). 40 μg of protein from whole cell lysates were subjected to SDS-PAGE and the resolved proteins were transferred onto PVDF membrane. The membranes were probed for primary antibodies against pSTAT3(Y705), pAkt(S473), β-catenin, c-Myc, OCT4, SOX-2, NANOG, CD44, GLI1, cleaved caspase-3 and β-actin. All primary antibodies were procured from Cell Signaling Technologies (Danvers, Mass.) except β-actin (Sigma Aldrich, St. Louis, Mo.). Dilution factor was 1:1000 for all the antibodies from Cell Signaling and 1:2000 for β-actin antibody. The membranes were developed as described by the present inventors (16).
Inhibition of Akt, STAT3 and sonic hedgehog signaling by pimavanserin. Since significant growth suppressive effects and apoptosis by pimavanserin treatment were observed, the inventors further elucidated the molecular mechanism by which pimavanserin mediates the above-mentioned effects. The inventors performed western blot analysis using whole cell lysates from AsPC1, BxPC3, PANC1, and MIAPaCa2 cells treated with 0, 5, 7.5 and 10 μM pimavanserin for 48 hours. […] Akt and STAT3 signaling modulates OCT-4, SOX-2, NANOG to activate GLI1, a transcription factor involved in sonic hedgehog signaling (7).

[2] = tested on: behavioral activity of mice; experiment: Mice behavioral analysis (Versamax); type: in vivo; conditions: after 67 days of 10 mg/kg; mice bearing orthotopic pancreatic tumors
Procedure: In orthotopic experiment, behavioral activity was measured using Versamax (Accuscan instruments) after 67 days of oral administration of 10 mg/kg pimavanserin tartrate. The following were measured, in FIG. 6A total distance; FIG. 6B horizontal activity' FIG. 6C vertical activity; and FIG. 6D ambulatory activity. Values are plotted as mean±SEM.
Mice behavioral analysis. In orthotopic studies, the behavioral activity of mice was analyzed after chronic administration of pimavanserin tartrate for […]. The behavioral analysis was performed by Versamax (Accuscan Instruments Inc., Columbus, Ohio, USA) as previously described by the present inventors (7, 12).
Pimavanserin tartrate is an anti-psychotic drug used for the treatment of Parkinson disease. Owing to its action on the central nervous system, the behavioral activity of mice after long-term pimavanserin tartrate administration was assessed. The behavioral activity of mice was monitored after 67 days of 10 mg/kg pimavanserin treatment using Versamax (Accuscan Instruments Inc.).

[3] = tested on: AsPC1, BxPC3, PANC1, MIAPaCa2, PO2, A375VR, SKMEL-28, HCT-116, 4T1, U87, U251, T98G, CT2A cells; experiment: Cytotoxicity studies, sulforhodamine B (SRB) assay; type: cell-based, human and murine; conditions: range over all the cell lines, read-out: IC50 (cell survival)
Procedure: FIGS. 1A to 1E show the effect of Pimavanserin tartrate suppresses the cell survival of pancreatic cancer cells. FIGS. 1F to 1G show the effect of pimavanserin tartrate suppresses the cell survival of melanoma cells. […] In the figures, the following cancer cells were evaluated: AsPC1 cells (FIG. 1A), BxPC3 cells (FIG. 1B), PANC1 cells (FIG. 1C), MIAPaCa2 cells (FIG. 1D), PO2 cells (FIG. 1E), A375VR cells (FIG. 1F), SKMEL-28 cells (FIG. 1G), HCT-116 cells (FIG. 1H), 4T1 cells (FIG. 1I), U87 cells (FIG. 1J), U251 cells (FIG. 1K), T98G vells (FIG. 1L), CT2A cells (FIG. 1M) which were treated with varied concentrations of pimavanserin tartrate for 24, 48 and 72 hours. Cell survival was determined by sulforhodamine B assay to estimate the IC50 values. The studies were repeated independently for three times with 4 replicates in each test. Values are plotted as mean±SD and the statistical significance level was considered as p<0.05.
Cell culture. Human pancreatic cancer cell lines AsPC1, BxPC3, PANC1, MIAPaCa2 cells, SKMEL-28 human melanoma cells, U87, U251, T98G human glioblastoma cells, and human colon cancer cell line HCT-116 were purchased from ATCC (Rockville, Md.). CT2A murine glioblastoma cells was a kind gift from Dr. Jill Edgar, Boston College, Boston. Cell lines were authenticated by STR analysis at TTUHSC core facilities (Lubbock, Tex.). […]
Cytotoxicity studies. The cytotoxic effects of pimavanserin tartrate in AsPC1, BxPC3, PANC1, MIAPaCa2, PO2, A375VR, SKMEL-28, HCT-116, 4T1, U87, U251, T98G, CT2A cells were determined by sulforhodamine B (SRB) assay. […] The optical density was measured using plate reader (Biotek instruments) as described by the present inventors (12).
Pimavanserin inhibited the proliferation of cancer cells, which included pancreatic cancer, melanoma, colon cancer, glioblastoma and breast cancer cells. The cytotoxic effects of pimavanserin were evaluated by SRB assay in the above mentioned cancer cells. […]

[4] = 0, 5, 7.5 and 10 μM, all the cell lines tested, concentration dependent

## CC(C)COc1ccc(CNC(=O)N(Cc2ccc(F)cc2)C2CCN(C)CC2)cc1 [pimavanserin, N-(4-fluorophenylmethyl)-N-(1-methylpiperidin-4-yl)-N′-(4-(2-methylpropyloxy)phenylmethyl)carbamide]
[1]; [4]
  expression of GLI1: significantly inhibited
  phosphorylation of STAT3 at Tyr705: significantly inhibited
[1]
  cancer stem cell markers OCT4, SOX-2, NANOG and CD44: remarkable inhibition
[1]; AsPC1, BxPC3, and MIAPaCa2 cells
  phosphorylation of Akt at Ser473: significantly reduced
[1]; all the cell lines tested
  expression of β-catenin: reduced
[1]; pancreatic cancer cells, concentration dependent
  cleavage of caspase 3: significant cleavage
[2]
  behavioral activity parameters (total distance, horizontal, vertical and ambulatory activity) vs control: did not change
[3]; 24 hours
  IC50: 7 to 15 µM
[3]; 48 hours
  IC50: 3 to 8 µM
[3]; 72 hours
  IC50: 3 to 8 µM
